From US10144944B2, “Methods of cell culture” (Momenta Pharmaceuticals, Inc., priority 2013, dated 2018) come the findings set out here.

Read-outs that look alike come from different tables or passages of the source.

Assay [1] deals with CHO cells genetically engineered to express the antibody. To be noted: for Product titer: day-7 batch culture; for viable cell density (VCD): day 4. As for the experimental part: (§1) The effect of putrescine on antibody glycoforms of a model antibody produced by CHO cells was analyzed. CHO cells genetically engineered to express the antibody were grown initially in base media (Power CHO2, Catalog #BE15-771, Lonza Inc., Allendale, N.J.). Cells were then inoculated (at 0.55×10^6 cells/mL) into a chemically defined medium containing 0.17 mg/L, 0.35 mg/L, or […] putrescine 2HCl and cultured as a batch culture in TPP tubespins for 7 days.
(§2) Cell viability was assessed on day 4 using a hemocytometer using cells stained with trypan blue. Titer was determined from the day-7 cultures by protein A affinity HPLC. Relative quantitation of each glycoform was performed on purified protein using Chip ToF. Chip ToF uses mass spectrometry to measure the extracted ion chromatogram (XIC) area for each species after chip-based enzymatic removal and purification of N-glycans, relative to the total XIC for detected species (see, e.g., mAb-Glyco Chip Kit, Agilent Technologies).

Assay [2] relates to model antibody produced by CHO cells. As for the experimental part: as §1, §2
Setting [3] is: with increasing levels of putrescine, FIG. 4.
[4] abbreviates: with increasing putrescine, FIG. 3.

`NCCCCN` [putrescine]: the Product titer in assay [1] (0.17 mg/L putrescine in medium) was 40 mg/L; in assay [1] (0.35 mg/L putrescine in medium), 58 mg/L; in assay [1] (0.52 mg/L putrescine in medium), 73 mg/L. The “viable cell density (VCD)” value in assay [1] (0.17 mg/L putrescine) is 1.5×10^6 cells/mL; in assay [1] (0.35 mg/L putrescine), 1.8×10^6 cells/mL; in assay [1] (0.52 mg/L putrescine) it was 2.2×10^6 cells/mL. The “relative change in G0F, G1F, and G2F” value in assay [2] (0.52 mg/L putrescine compared to 0.17 mg/L putrescine, FIG. 3) was “about 10%”. The “putrescine level above which effect on fucosylated glycans saturates” value in assay [2] (non-linear relationship, FIG. 2) was “above 0.35 mg/mL”. Moreover, the “fraction of fucosylated glycans” value in assay [2] (with increasing levels of putrescine (0.17-0.52 mg/L), FIG. 2) is “increased”. Also, the high mannose glycans entry in assay [2] (setting [3]) is on record as “reduced”. Further, in assay [2] (setting [3]), the “level of sialylated glycans” value is on record as “increased”. Further, the level of galactosylation result in assay [2] (with increasing putrescine) is “increase”. Moreover, the “levels of G0F” value in assay [2] (setting [4]) is on record as “reduced”. In assay [2] (setting [4]), the “levels of G1F” value was “increased”. In addition, the “levels of G2F” value in assay [2] (setting [4]) is listed as “increased”.
